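96-well plates; 48 h exposure; 5 concentrations. Endpoints by linear interpolation between flanking doses. Not reached: highest tested concentration assigned. Definition used: TGI = concentration required for complete inhibition of growth.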
How the values were obtained:
Test in all cases: NCI anticancer screen, dose series, 48 h
CAKI-1 renal = test system: CAKI-1 renal
HOP-62 NSCLC = test system: HOP-62 NSCLC
LOX IMVI melanoma = test system: LOX IMVI melanoma
MALME-3M melanoma = test system: MALME-3M melanoma
OVCAR-3 ovarian = test system: OVCAR-3 ovarian
RPMI-8226 leukemia = test system: RPMI-8226 leukemia
SF-539 CNS = test system: SF-539 CNS
SNB-19 CNS = test system: SNB-19 CNS
UACC-257 melanoma = test system: UACC-257 melanoma
HOP-92 NSCLC = test system: HOP-92 NSCLC

SMILES	TGI (CAKI-1 renal) [µM]	TGI (HOP-62 NSCLC) [µM]	TGI (LOX IMVI melanoma) [µM]	TGI (MALME-3M melanoma) [µM]	TGI (OVCAR-3 ovarian) [µM]	TGI (RPMI-8226 leukemia) [µM]	TGI (SF-539 CNS) [µM]	TGI (SNB-19 CNS) [µM]	TGI (UACC-257 melanoma) [µM]	TGI (HOP-92 NSCLC) [µM]
Cc1[nH]n(C(=O)Cc2ccccc2)c(=O)c1/C=C1\C(=O)C=Cc2ccccc21	> 100	> 100	93	40.2	> 100	> 100	75.2	> 100	> 100	–
CCOC(=O)c1nc2ccccc2nc1Oc1ccc(F)cc1	–	> 100	> 100	–	> 100	> 100	> 100	> 100	> 100	> 100
N#CC(C#N)=CNC(=S)Nc1ccc(S(=O)(=O)Nc2nccs2)cc1	> 100	> 100	> 100	–	> 100	–	> 100	> 100	> 100	> 100
CC1=C(C(N)=O)C(c2ccncc2)C(C#N)C(=O)N1 (configuration not stated)	> 100	> 100	> 100	–	–	> 100	> 100	> 100	> 100	> 100
C[C@@H](NC(=O)Nc1cccc(C(=O)Nc2cc(C(C)(C)C)ccc2C(=O)O)n1)c1ccccc1	> 100	86.1	36.7	> 100	51.1	> 100	–	> 100	–	–
CCCCc1c2c([n+]([O-])c3c1CCCC3)CCCC2	–	> 100	> 100	> 100	> 100	> 100	> 100	> 100	> 100	–
c1ccc2sc(C3(N4CCCCCC4)CCCCC3)cc2c1	> 100	86.8	43.4	–	38.6	–	46.1	44.6	50	80
C/C(=C\COP(=O)(O)CP(=O)(O)O)CC/C=C(\C)CNc1ccccc1	> 100	> 100	> 100	–	> 100	> 100	> 100	> 100	> 100	–
CCc1c(N=[N+]=[N-])c2ccccc2oc1=O	–	> 100	> 100	> 100	> 100	> 100	> 100	–	> 100	> 100
COC(=O)C(Cc1ccc2c(c1)OCO2)(NC(=O)c1ccccc1)P(=O)(OC)OC (configuration not stated)	> 100	> 100	> 100	–	–	> 100	> 100	> 100	> 100	> 100
COc1ccc(N(c2ccc(C#N)cc2)c2ccc(C#N)cc2)cc1	> 100	> 100	> 100	–	> 100	–	> 100	> 100	> 100	> 100
CC(C)C1CC(CO)(CNc2nc(N)nc(Cl)c2C=O)C1 (configuration not stated)	–	37	3.81	44.3	8.77	> 100	41.5	17.1	6.06	4.83
O=C(NNC(=O)c1cc2ccccc2[nH]1)c1cc2ccccc2[nH]1	> 100	> 100	> 100	> 100	> 100	> 100	> 100	> 100	> 100	–
COc1ccc(C2OC2C(=O)C23CC4CC(CC(C4)C2)C3)cc1 (configuration not stated)	–	> 100	> 100	> 100	> 100	> 100	> 100	> 100	> 100	> 100
O=C1/C(=C/c2ccc(Cl)cc2)NC(=S)N1CN1CCCCC1	–	> 100	> 100	88.7	> 100	76.5	–	68.7	–	> 100
O=C(O)OC12CCCCCC1C(=O)C1CCCCC12 (configuration not stated)	–	> 100	> 100	> 100	–	> 100	–	> 100	> 100	–
O=C(c1ccccc1)N1N=C(C(F)(F)F)CC1(O)C(F)(F)F (configuration not stated)	–	> 100	> 100	> 100	> 100	> 100	> 100	> 100	> 100	–
CC1CC(=O)C(CC(=O)O)[C@H]1C(C(=O)C(=O)Nc1cc(Cl)ccc1Cl)[N+](=O)[O-] (some centres not stated)	> 100	> 100	> 100	–	> 100	> 100	> 100	> 100	–	> 100
COC(=O)C#CC1(O)C=CC(=O)C=C1	–	15.7	1.9	4.48	1.6	2.67	> 35.1	17.9	3.64	2.29
CC12CCC(C(=Nc3ccc([N+](=O)[O-])cc3)C1=O)C2(C)C (configuration not stated)	> 100	81.9	31.3	30	55.1	52.3	42.2	> 100	> 100	–

Source: PubChem BioAssay (NCI)
